This series has as its system colorectal tissue transcripts. Description: SAGE of normal, adenoma and cancer colorectal tissue (transcript tag counts). Also on record: species or system human. The settings on record: for AD1 (SAGE tag count): SAGE library AD1; for AD2 (SAGE tag count): SAGE library AD2; for CA1 (SAGE tag count): SAGE library CA1; for CA2 (SAGE tag count): SAGE library CA2; for NC1 (SAGE tag count): SAGE library NC1; for NC2 (SAGE tag count): SAGE library NC2. The source says:
In an effort to identify potential molecular markers of early colorectal tumors, we have here analyzed gene expression in benign and malignant colorectal tumors in an unbiased and comprehensive fashion. We used SAGE to analyze global gene expression in normal, benign and malignant colorectal tissue. SAGE is a gene expression profiling method that associates individual mRNA transcripts with 15-base tags derived from specific positions near their 3′ termini (3). The abundance of each tag provides a quantitative measure of the transcript level present within the mRNA population studied. SAGE is not dependent on pre-existing databases of expressed genes, and therefore provides an unbiased view of gene expression profiles. For the current study, SAGE libraries derived from two samples of normal colonic epithelium, two colorectal adenomas, and two colorectal cancers were analyzed.
SAGE. For the initial SAGE^3 of benign tumors, fresh adenomas were obtained from surgical specimens derived from FAP patients. Adenomas from FAP patients were employed because of the ready availability of small lesions and the certainty of inactivation of the APC pathway which initiates the formation of the majority of sporadic tumors. After histopathological verification of the neoplastic nature of the lesion (>70% neoplastic cells), total RNA was isolated by solubilizing the tissue in RNAgents Lysis Buffer (Promega, Madison, Wis.) followed by ultracentrifugation over a cesium chloride gradient. mRNA selection was performed from the purified total RNA using oligo(dT) cellulose (Life Technologies, Gaithersburg, Md.). […] Tags were extracted from the raw sequence data and, after excluding repeated ditags, linker sequences, and tags from the polyrnorphic Major Histocompatibility loci, the resulting tag libraries were compared and statistical analysis performed using SAGE software, version 4.0. Data from the libraries are publicly available at the Uniform Resource Locator (URL) address for the http file type found on the www host server that has a domain name of ncbi.nlm.nih.gov, and a path to the directory SAGE, and detailed SAGE protocols are available at the Uniform Resource Locator (URL) address for the http file type found on the www host server that has a domain name of sagenet.org, and file name of sage_protocol.htn.

In the case of “AGGTGACTGG (chemistry not fully specified)”, the “AD1 (SAGE tag count)” value is recorded as 0, the “AD2 (SAGE tag count)” value was 0, the “CA1 (SAGE tag count)” value was found to be 0 and the “CA2 (SAGE tag count)” value came to 0. In addition, the “NC1 (SAGE tag count)” value was 10 and the “NC2 (SAGE tag count)” value is 14.
“AGTGGGCTCA (chemistry not fully specified)”: the “AD1 (SAGE tag count)” value came to 0, the “AD2 (SAGE tag count)” value was determined as 1, the “CA1 (SAGE tag count)” value worked out at 0 and the “CA2 (SAGE tag count)” value is reported as 0. Further, the “NC1 (SAGE tag count)” value was found to be 3 and the “NC2 (SAGE tag count)” value came to 8.
Take “ATACTCCACT (chemistry not fully specified)”: the “AD1 (SAGE tag count)” value was determined as 0, the “AD2 (SAGE tag count)” value was 0, the “CA1 (SAGE tag count)” value worked out at 10 and the “CA2 (SAGE tag count)” value came out at 3. The “NC1 (SAGE tag count)” value was 82 and the “NC2 (SAGE tag count)” value stood at 59.
Turning to “ATATAATCTG (chemistry not fully specified)”, the “AD1 (SAGE tag count)” value is 1, the “AD2 (SAGE tag count)” value is 4, the “CA1 (SAGE tag count)” value was 5 and the “CA2 (SAGE tag count)” value was 5. The “NC1 (SAGE tag count)” value is given as 18 and the “NC2 (SAGE tag count)” value was found to be 14.
For the sequence “ATCGTGGCGG (chemistry not fully specified)”, the “AD1 (SAGE tag count)” value worked out at 19, the “AD2 (SAGE tag count)” value turned out to be 25, the “CA1 (SAGE tag count)” value is 20 and the “CA2 (SAGE tag count)” value is 10. Besides, the “NC1 (SAGE tag count)” value is listed as 193 and the “NC2 (SAGE tag count)” value came out at 92.
As for “ATGACGCTCA (chemistry not fully specified)”, the “AD1 (SAGE tag count)” value is listed as 6, the “AD2 (SAGE tag count)” value turned out to be 5, the “CA1 (SAGE tag count)” value is listed as 3 and the “CA2 (SAGE tag count)” value is reported as 4. In addition, the “NC1 (SAGE tag count)” value is listed as 22 and the “NC2 (SAGE tag count)” value is given as 18.
Take “ATGATGGCAC (chemistry not fully specified; the letters are possibly those of the target site)”: the “AD1 (SAGE tag count)” value was found to be 1, the “AD2 (SAGE tag count)” value is 0, the “CA1 (SAGE tag count)” value turned out to be 1 and the “CA2 (SAGE tag count)” value was 0. Moreover, the “NC1 (SAGE tag count)” value is 12 and the “NC2 (SAGE tag count)” value is on record as 32.
“ATGCGGAGTC (chemistry not fully specified)”: the “AD1 (SAGE tag count)” value was determined as 5, the “AD2 (SAGE tag count)” value is on record as 3, the “CA1 (SAGE tag count)” value amounted to 2 and the “CA2 (SAGE tag count)” value was 4. Moreover, the “NC1 (SAGE tag count)” value amounted to 14 and the “NC2 (SAGE tag count)” value is listed as 13.
Turning to “ATGCGGGAGA (chemistry not fully specified)”, the “AD1 (SAGE tag count)” value amounted to 15, the “AD2 (SAGE tag count)” value is reported as 22, the “CA1 (SAGE tag count)” value amounted to 5 and the “CA2 (SAGE tag count)” value was 6. Besides, the “NC1 (SAGE tag count)” value is listed as 38 and the “NC2 (SAGE tag count)” value stood at 39.
As for “ATGGCACGGA (chemistry not fully specified; the letters are possibly those of the target site)”, the “AD1 (SAGE tag count)” value was 1, the “AD2 (SAGE tag count)” value came to 1, the “CA1 (SAGE tag count)” value came to 3 and the “CA2 (SAGE tag count)” value was 0. The “NC1 (SAGE tag count)” value was 6 and the “NC2 (SAGE tag count)” value is given as 21.
In the case of “ATGGTCTACG (chemistry not fully specified)”, the “AD1 (SAGE tag count)” value amounted to 0, the “AD2 (SAGE tag count)” value is 0, the “CA1 (SAGE tag count)” value turned out to be 1 and the “CA2 (SAGE tag count)” value is 0. The “NC1 (SAGE tag count)” value was found to be 10 and the “NC2 (SAGE tag count)” value worked out at 5.
For the sequence “ATGGTGGGGG (chemistry not fully specified)”, the “AD1 (SAGE tag count)” value turned out to be 11, the “AD2 (SAGE tag count)” value was found to be 9, the “CA1 (SAGE tag count)” value is on record as 1 and the “CA2 (SAGE tag count)” value was 2. Further, the “NC1 (SAGE tag count)” value was determined as 25 and the “NC2 (SAGE tag count)” value was found to be 30.
On to “ATGTGCGTGG (chemistry not fully specified)”, for which the “AD1 (SAGE tag count)” value was determined as 11, the “AD2 (SAGE tag count)” value stood at 3, the “CA1 (SAGE tag count)” value turned out to be 7 and the “CA2 (SAGE tag count)” value was found to be 7. Besides, the “NC1 (SAGE tag count)” value came to 38 and the “NC2 (SAGE tag count)” value came to 8.
On to “ATGTGGGCTC (chemistry not fully specified)”, for which the “AD1 (SAGE tag count)” value came to 0, the “AD2 (SAGE tag count)” value worked out at 0, the “CA1 (SAGE tag count)” value is recorded as 0 and the “CA2 (SAGE tag count)” value amounted to 0. Besides, the “NC1 (SAGE tag count)” value was 7 and the “NC2 (SAGE tag count)” value stood at 2.
Consider “ATTGGAGTGC (chemistry not fully specified)”, for which the “AD1 (SAGE tag count)” value is reported as 15, the “AD2 (SAGE tag count)” value was 36, the “CA1 (SAGE tag count)” value was 37 and the “CA2 (SAGE tag count)” value stood at 19. Moreover, the “NC1 (SAGE tag count)” value is given as 136 and the “NC2 (SAGE tag count)” value came out at 85.
Turning to “ATTTCAAGAT (chemistry not fully specified)”, the “AD1 (SAGE tag count)” value was 0, the “AD2 (SAGE tag count)” value amounted to 2, the “CA1 (SAGE tag count)” value came out at 1 and the “CA2 (SAGE tag count)” value is on record as 0. Moreover, the “NC1 (SAGE tag count)” value turned out to be 35 and the “NC2 (SAGE tag count)” value is 21.
On to “CAAATAAAAG (chemistry not fully specified)”, for which the “AD1 (SAGE tag count)” value is listed as 2, the “AD2 (SAGE tag count)” value is given as 0, the “CA1 (SAGE tag count)” value is reported as 1 and the “CA2 (SAGE tag count)” value stood at 1. The “NC1 (SAGE tag count)” value came out at 9 and the “NC2 (SAGE tag count)” value is recorded as 12.
As for “CAAGAGTTTC (chemistry not fully specified)”, the “AD1 (SAGE tag count)” value is given as 0, the “AD2 (SAGE tag count)” value was determined as 0, the “CA1 (SAGE tag count)” value was 0 and the “CA2 (SAGE tag count)” value is on record as 0. The “NC1 (SAGE tag count)” value turned out to be 14 and the “NC2 (SAGE tag count)” value is recorded as 2.
Turning to “CACCCCTGAT (chemistry not fully specified)”, the “AD1 (SAGE tag count)” value was 58, the “AD2 (SAGE tag count)” value is on record as 58, the “CA1 (SAGE tag count)” value was 13 and the “CA2 (SAGE tag count)” value is 36. Also, the “NC1 (SAGE tag count)” value was 73 and the “NC2 (SAGE tag count)” value is on record as 169.
Turning to “CAGTGCGTTC (chemistry not fully specified)”, the “AD1 (SAGE tag count)” value is recorded as 0, the “AD2 (SAGE tag count)” value was 0, the “CA1 (SAGE tag count)” value came to 3 and the “CA2 (SAGE tag count)” value is on record as 0. Also, the “NC1 (SAGE tag count)” value turned out to be 12 and the “NC2 (SAGE tag count)” value came to 3.
Turning to “CATAGGTTTA (chemistry not fully specified)”, the “AD1 (SAGE tag count)” value came to 4, the “AD2 (SAGE tag count)” value is 1, the “CA1 (SAGE tag count)” value is given as 5 and the “CA2 (SAGE tag count)” value stood at 0. Moreover, the “NC1 (SAGE tag count)” value was found to be 66 and the “NC2 (SAGE tag count)” value was 39.
As to “CCAAAGCTAT (chemistry not fully specified)”, the “AD1 (SAGE tag count)” value came out at 14, the “AD2 (SAGE tag count)” value came out at 12, the “CA1 (SAGE tag count)” value is given as 6 and the “CA2 (SAGE tag count)” value turned out to be 11. Further, the “NC1 (SAGE tag count)” value came to 42 and the “NC2 (SAGE tag count)” value was found to be 16.
For the sequence “CCAACACCAG (chemistry not fully specified)”, the “AD1 (SAGE tag count)” value is 1, the “AD2 (SAGE tag count)” value is listed as 0, the “CA1 (SAGE tag count)” value amounted to 0 and the “CA2 (SAGE tag count)” value worked out at 1. Further, the “NC1 (SAGE tag count)” value was 9 and the “NC2 (SAGE tag count)” value is 19.
Turning to “CCACTGCACC (chemistry not fully specified)”, the “AD1 (SAGE tag count)” value was 5, the “AD2 (SAGE tag count)” value is reported as 5, the “CA1 (SAGE tag count)” value is 6 and the “CA2 (SAGE tag count)” value is 14. For the same sequence, the “NC1 (SAGE tag count)” value was 21 and the “NC2 (SAGE tag count)” value amounted to 19.
For the sequence “CCAGGGGAGA (chemistry not fully specified)”, the “AD1 (SAGE tag count)” value was 24, the “AD2 (SAGE tag count)” value was determined as 22, the “CA1 (SAGE tag count)” value is given as 10 and the “CA2 (SAGE tag count)” value amounted to 20. The “NC1 (SAGE tag count)” value was 45 and the “NC2 (SAGE tag count)” value turned out to be 66.
As for “CCATTCCACT (chemistry not fully specified)”, the “AD1 (SAGE tag count)” value turned out to be 2, the “AD2 (SAGE tag count)” value is reported as 0, the “CA1 (SAGE tag count)” value came out at 0 and the “CA2 (SAGE tag count)” value turned out to be 0. Further, the “NC1 (SAGE tag count)” value was 13 and the “NC2 (SAGE tag count)” value amounted to 1.

These data come from patent US8029764B2, “Methods for detection of colorectal cancer” (The Johns Hopkins University, priority 2001, dated 2011).
